Test system: SHR and WKY rats
Assay: Maximal TGF responses during retrograde microperfusion of Tempol into the macula densa/JGA (Series 6)
Type: in vivo, rat
Details: for Percentage reduction in TGF normalized to the initial response: Tempol 10^−3 M retrograde; for PSF difference 0-40 nl·min^−1 (maximal TGF response) / PSF during LH perfusion at 0 nl·min^−1 / PSF during LH perfusion at 40 nl·min^−1: retrograde perfusion, ATF+Tempol 10^−3 M, mean ± SEM
Protocol: Series 4. Effects of inhibition of bNOS on maximal TGF responses in SHR and WKY. These experiments further examined the SHR hypertension model and whether the enhanced TGF of the SHR kidney is due to a blunted generation of NO by bNOS in the macula densa or whether NOS inhibition is diminished in the SHR model. Groups of SHR and age-matched WKY rats were prepared for in vivo micropuncture, microperfusion, and TGF studies as described in detail previously. In brief, animals were anesthetized with thiobarbital (Inactin, 100 mg·kg^−1; Research Biochemicals, Inc., Natick, Mass.). A catheter was placed in a jugular vein for fluid infusion and in a femoral artery for recording of mean arterial pressure (MAP) from the electrically damped output of a pressure transducer (Statham, Inc.). A tracheotomy tube was inserted and the animals were allowed to breathe spontaneously. The left kidney was exposed by a flank incision, cleaned of connective tissue, and stabilized in a Lucite cup. This kidney was bathed in 0.154 M NaCl maintained at 37° C. After completion of surgery, rats were infused with a solution of 0.154 M NaCl and 1% albumin at 1.5 ml·h^−1 to maintain a euvolemic state. Micropuncture studies were begun after 60 min for stabilization.
For orthograde microperfusion of the loop of Henle (LH), a micropipette (8 μm OD) containing artificial tubular fluid (ATF) stained with FD&C dye was inserted into a late proximal tubule. Injections of the colored ATF identified the nephron and the direction of flow. An immobile bone wax block was inserted into this micropuncture site via a micropipette (10-15 μm) and connected to a hydraulic drive (Trent Wells, Inc., LaJolla, Calif.) to halt tubular fluid flow. A perfusion micropipette (6-8 μm) containing ATF and test compounds or vehicle was inserted into the proximal tubule downstream from the wax block and connected to a nanoliter perfusion pump (WPI, Sarasota, Fla.). A pressure micropipette (1-2 μm) was inserted into the proximal tubule upstream from the wax block to measure proximal stop flow pressure (PSF). Changes in PSF are an index of changes in glomerular capillary hydraulic pressure (PGC). Measurements of PSF were made in each nephron during zero loop perfusion and during perfusion with ATF at 40 nl·min^−1, which produces a maximal TGF response, defined as the difference between PSF values recorded during perfusion of the loop with ATF at 0 and 40 nl·min^−1.
Groups of SHR (n=5) and WKY rats (n=5) were prepared for studies of retrograde microperfusion into the macula densa. […] Therefore, these studies of TGF were conducted with retrograde microperfusion from the early distal (ED) tubule into the macula densa. After identifying the nephron with FD&C green, the last proximal convolution was vented and a wax block placed upstream. A micropipette (8-10 μm OD) was inserted into the ED tubule upstream from an oil droplet. The loop of Henle was perfused retrogradely with perfusate entering the macula densa segment directly at 0 and 20 nl·min^−1. This represents a maximal activation for TGF by retrograde perfusion. […] Therefore, this dose was used thereafter in the test animals (Dosage/kg would usually be lower in larger animals). Comparisons were made of maximum TGF responses obtained during perfusion of ATF+vehicle (ethanol) and ATF+Tempol.

CC1(C)CC(O)CC(C)(C)N1[O] [Tempol, 4-hydroxy-2,2,6,6-tetramethyl-1-piperidinyloxy]
Percentage reduction in TGF normalized to the initial response (SHR): −26±2% | PSF difference 0-40 nl·min^−1 (maximal TGF response) (SHR): 8.5 ± 0.8 mm Hg | PSF during LH perfusion at 0 nl·min^−1 (SHR): 40.8 ± 0.8 mm Hg | PSF during LH perfusion at 40 nl·min^−1 (SHR): 32.1 ± 0.9 mm Hg | Percentage reduction in TGF normalized to the initial response (WKY): −17±3% | PSF difference 0-40 nl·min^−1 (maximal TGF response) (WKY): 6.7 ± 0.4 mm Hg | PSF during LH perfusion at 0 nl·min^−1 (WKY): 34.7 ± 0.8 mm Hg | PSF during LH perfusion at 40 nl·min^−1 (WKY): 28.0 ± 0.9 mm Hg | Maximally effective dose (preliminary studies, effects reversible) (retrograde microperfusion into the macula densa): 10^−3 M
